Laboratory results as given in US20230125482A1, “PROTEIN KINASE C MODULATORS” (Young Therapeutics, LLC, priority 2020, published 2023).
Where no end group is shown, it is not given here. The star is where a group is joined. Myristoyl = CCCCCCCCCCCCCC(=O)*

Key:
[1] = test system: rat polymorphonuclear leukocytes (PMNs); assay: PMA-stimulated superoxide release in rat polymorphonuclear leukocytes (ferricytochrome c reduction, 550 nm); assay type: cell-based; conditions: for reduction of PMA (100 nM) induced leukocyte superoxide release: vs untreated PMA controls
Description: Change in absorbance at 550 nm via ferricytochrome c reduction by superoxide after stimulation with 100 nM phorbol 12-myristate 13-acetate (PMA) from time 0 to 390 sec was monitored in rat polymorphonuclear leukocytes (PMNs) (5×10^6) incubated for 15 min at 37° C. in the presence/absence of unconjugated PKCβII activator (PKCβII+) (SVEIWD (SEQ ID NO: 23)) or inhibitor (PKCβII−) (SLNPEWNET(SEQ ID NO: 5)), Myr−PKCβII+/−, Myr−PKCβII− scram (Myr-WNPESLNTE (Myristoylated SEQ ID NO: 17), Myr−TAT−PKC|II− (Myristoylated SEQ ID NO: 15) (all 20 μM) or superoxide dismutase (SOD; 10 μg/mL) (FIG. 7). Stock concentrations of compounds were dissolved in DMSO to yield a final concentration not greater that 0.2%. #: p<0.05 vs PMA, Native PKC βII+, Myr−PKC βII+ and Myr−TAT−PKC βII−; **: p<0.01 vs. all groups except Myr−TAT−PKC βII− or SOD; ++: p<0.01 vs. all groups. ANOVA post-hoc analysis was conducted using Bonferroni-Dunn.
The time course of changes in absorbance are summarized in FIGS. 8 (concentration response of Myr+TAT PKCβII−) and 9 (comparison of Myr+TAT+PKCβII− and Myr−PKCβII−, Myr−PKCβII− scrambled, and PKCβII− analogues and PMA controls). The peak response was reached by 300 seconds and maintained a plateau to 390 seconds, Myr+TAT+PKCβII− (20 μM; n=5) reduced phorbol 12-myristate 13-acetate (PMA, 100 nM) induced leukocyte superoxide release by 80%—a degree that was greater than all other study groups (p<0.01). In contrast, the Myr+PKCβII− (20 μM; n=27) reduced leukocyte superoxide release by only 30% (20 μM; n=27), again supporting the concept that the dual Myr−TAT conjugation produced greater results and reduced leukocyte superoxide release by ˜80% and ˜65% as compared to untreated PMA controls (n=74) and Myr+PKCβII− (20 μM; n=27), respectively.

[2] = test system: isolated rat hearts; assay: Myocardial ischemia/reperfusion (I/R) injury in isolated rat hearts (Langendorff, ex vivo); conditions: for Final Coronary Flow / Final Heart Rate / Final LVDP / Final LVEDP / Final LVESP / Final dP/dtmax / Final dP/dtmin: 50 min post-reperfusion; for Initial Coronary Flow / Initial Heart Rate / Initial LVDP / Initial LVEDP / Initial LVESP / Initial dP/dtmax / Initial dP/dtmin: baseline before ischemia
Description: Rat hearts were isolated from anesthetized male Sprague Dawley rats (275-325 g), placed in ice-cold Krebs' buffer, and placed onto a Langendorff heart apparatus and retro perfused with Krebs' buffer at a constant pressure of 80 mmHg (FIG. 1). A pressure transducer measures heart rate, left ventricular end-systolic pressure, end-diastolic pressure, dP/dt max, and dP/dt min. Coronary flow is measured via a flow probe connected to the perfusion tubing. Cardiac function was recorded throughout the experimental protocol using a pressure transducer inserted into the left ventricle (15 min baseline; global I(30 min)/R(50 min)). Selected peptides of TABLE 1 or vehicle (control [0.05 to 0.2% Dimethylsulfoxide) were given during the first 5 min of reperfusion. All peptide inhibitors or activators were dissolved in 28% DMSO and the final concentration of DMSO with peptides or without peptides (control I/R hearts) delivered to all hearts was 0.06%. Statistical analysis was performed using ANOVA and Bonferroni-Dunn post-hoc test.
At the end of the experimental protocol, hearts were removed from the Langendorff apparatus, and frozen for 30 min at −20° C. Hearts were sectioned (2 mm) from base to apex and placed in 1% TTC for ˜10 min at 37° C. Viable tissue stained red and infarcted tissue was unstained (pale). Total tissue sections were weighed and infarcted tissue was separated from viable tissue and weighed to determine infarct size (i.e. infarct tissue weight/total tissue weight).

[3] = ex vivo rat I/R hearts, FIG. 4, concentration not given
[4] = 10 μM, I(30 min)/R(50 min), infarct tissue weight/total tissue weight

## Myr-YGRKKRRQRRRCCSLNPEWNET (Myristoyl-YGRKKRRQRRRCCSLNPEWNET; cysteine pairing not given here) [Myr+TAT+PKCβII−]
[1]; 20 μM
  effect on PMA induced leukocyte superoxide release (in words): virtually identical to the SOD standard
  reduction of leukocyte superoxide release as compared to Myr+PKCβII− (20 μM): ~65%
  reduction of PMA (100 nM) induced leukocyte superoxide release: 80%
[2]; [3]
  Infarct Size: 5%

## SLNPEWNET (Atificially synthesized) [PKCβII−]
[1]; 20 μM
  effect on PMA induced leukocyte superoxide release (in words): did not exert a significant inhibition

## Myr-YGRKKRRQRRRCCLSETKPAV (Myristoyl-YGRKKRRQRRRCCLSETKPAV; cysteine pairing not given here) [Myr + TAT + PKCε- Scram.]
[2]; 1 nM
  Final Coronary Flow: 7 ± 2 mL/min
  Final Heart Rate: 225 ± 1 BPM
  Final LVDP: 50 ± 11 mmHg
  Final LVEDP: 53 ± 4 mmHg
  Final LVESP: 103 ± 14 mmHg
  Final dP/dtmax: 993 ± 195 mmHg/s
  Final dP/dtmin: −760 ± 210 mmHg/s
  Initial Coronary Flow: 15 ± 1 mL/min
  Initial Heart Rate: 278 ± 10 BPM
  Initial LVDP: 87 ± 1 mmHg
  Initial LVEDP: 6 ± 0.4 mmHg
  Initial LVESP: 92 ± 1 mmHg
  Initial dP/dtmax: 2267 ± 87 mmHg/s
  Initial dP/dtmin: −1490 ± 82 mmHg/s
[2]; 1 nM, I(30 min)/R(50 min), infarct tissue weight/total tissue weight
  Infarct Size: 19 ± 2%
[2]; 100 nM
  Final Coronary Flow: 12 ± 4 mL/min
  Final Heart Rate: 295 ± 29 BPM
  Final LVDP: 36 ± 12 mmHg
  Final LVEDP: 57 ± 10 mmHg
  Final LVESP: 93 ± 9 mmHg
  Final dP/dtmax: 706 ± 223 mmHg/s
  Final dP/dtmin: −677 ± 222 mmHg/s
  Initial Coronary Flow: 21 ± 6 mL/min
  Initial Heart Rate: 271 ± 16 BPM
  Initial LVDP: 91 ± 5 mmHg
  Initial LVEDP: 9 ± 2 mmHg
  Initial LVESP: 100 ± 4 mmHg
  Initial dP/dtmax: 2300 ± 189 mmHg/s
  Initial dP/dtmin: −1545 ± 117 mmHg/s
[2]; 100 nM, I(30 min)/R(50 min), infarct tissue weight/total tissue weight
  Infarct Size: 14 ± 3%
[2]; 10 μM
  Final Coronary Flow: 3 ± 0.1 mL/min
  Final Heart Rate: 684 ± 167 BPM
  Final LVDP: 3 ± 2 mmHg
  Final LVEDP: 70 ± 10 mmHg
  Final LVESP: 72 ± 8 mmHg
  Final dP/dtmax: 27 ± 9 mmHg/s
  Final dP/dtmin: −24 ± 8 mmHg/s
  Initial Coronary Flow: 18 ± 1 mL/min
  Initial Heart Rate: 275 ± 12 BPM
  Initial LVDP: 86 ± 1 mmHg
  Initial LVEDP: 6 ± 1 mmHg
  Initial LVESP: 92 ± 0.3 mmHg
  Initial dP/dtmax: 2309 ± 69 mmHg/s
  Initial dP/dtmin: −1604 ± 71 mmHg/s
[2]; [4]
  Infarct Size: 16 ± 6%

## Myr-SLNPEWNET (Myristoyl-SLNPEWNET) [Myr+PKCβII−]
[1]; 20 μM
  reduction of PMA (100 nM) induced leukocyte superoxide release: 30%
[2]; [3]
  Infarct Size: 13±2%

## Myr-LSETKPAV (Myristoyl-LSETKPAV) [Myr + PKCε- Scram.]
[2]; 10 μM
  Final Coronary Flow: 8 ± 2 mL/min
  Final Heart Rate: 236 ± 11 BPM
  Final LVDP: 51 ± 9 mmHg
  Final LVEDP: 56 ± 8 mmHg
  Final LVESP: 107 ± 4 mmHg
  Final dP/dtmax: 958 ± 265 mmHg/s
  Final dP/dtmin: −727 ± 133 mmHg/s
  Initial Coronary Flow: 19 ± 3 mL/min
  Initial Heart Rate: 278 ± 10 BPM
  Initial LVDP: 87 ± 4 mmHg
  Initial LVEDP: 9 ± 2 mmHg
  Initial LVESP: 96 ± 6 mmHg
  Initial dP/dtmax: 2307 ± 55 mmHg/s
  Initial dP/dtmin: −1571 ± 72 mmHg/s
[2]; [4]
  Infarct Size: 14 ± 3%

## Myr-WNPESLNTE (Myristoyl-WNPESLNTE) [Myr−PKCβII− scrambled]
[1]; 20 μM
  effect on PMA induced leukocyte superoxide release (in words): increased
[2]; [3]
  Infarct Size: 22±2%

## YGRKKRRQRRRCCEAVSLKPT (not fully specified; cysteine pairing not given here) [TAT + PKCε-]
[2]; 10 μM
  reduction of infarct size compared to control I/R hearts: did not reduce infarct size
  Final Coronary Flow: 12 ± 4 mL/min
  Final Heart Rate: 242 ± 18 BPM
  Final LVDP: 37 ± 12 mmHg
  Final LVEDP: 63 ± 2 mmHg
  Final LVESP: 100 ± 13 mmHg
  Final dP/dtmax: 678 ± 223 mmHg/s
  Final dP/dtmin: −723 ± 84 mmHg/s
  Initial Coronary Flow: 20 ± 2 mL/min
  Initial Heart Rate: 285 ± 10 BPM
  Initial LVDP: 86 ± 5 mmHg
  Initial LVEDP: 7 ± 2 mmHg
  Initial LVESP: 93 ± 3 mmHg
  Initial dP/dtmax: 2408 ± 126 mmHg/s
  Initial dP/dtmin: −1735 ± 149 mmHg/s
[2]; [4]
  Infarct Size: 18 ± 2%

## Superoxide dismutase [SOD, reference compound]
[1]; 10 ug/ml, positive control
  attenuation of leukocyte superoxide release: ~94%
